Test results reported in patent publication US7528138B2, “Pyrazolo[1,5-a]pyrimidines useful as inhibitors of protein kinases” (Vertex Pharmaceuticals Incorporated, priority 2004, dated 2009).

target: T1, Rlk (Homo sapiens, UniProt P42681); experiment: RLK Inhibition Assay, coupled enzyme assay; assay type: biochemical; conditions: enzyme inhibition data (Ki), Table 11
T1 sequence (P42681 1-527): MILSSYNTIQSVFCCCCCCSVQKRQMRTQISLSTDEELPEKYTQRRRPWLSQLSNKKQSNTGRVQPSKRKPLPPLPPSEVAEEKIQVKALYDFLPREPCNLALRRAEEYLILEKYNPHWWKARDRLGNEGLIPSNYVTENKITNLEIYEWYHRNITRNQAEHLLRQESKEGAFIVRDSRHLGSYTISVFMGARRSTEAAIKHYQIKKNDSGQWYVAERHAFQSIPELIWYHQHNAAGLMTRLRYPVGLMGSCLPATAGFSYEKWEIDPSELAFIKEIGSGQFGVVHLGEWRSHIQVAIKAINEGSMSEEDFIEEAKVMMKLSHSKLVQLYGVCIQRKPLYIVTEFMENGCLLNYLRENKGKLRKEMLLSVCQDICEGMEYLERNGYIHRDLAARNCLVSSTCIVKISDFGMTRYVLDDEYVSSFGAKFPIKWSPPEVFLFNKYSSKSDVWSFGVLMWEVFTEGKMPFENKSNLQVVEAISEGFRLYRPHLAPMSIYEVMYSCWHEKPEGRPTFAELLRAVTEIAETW
Experimental: Compounds are screened for their ability to inhibit Rlk using a standard coupled enzyme assay (Fox et al., Protein Sci., (1998) 7, 2249). Assays are carried out in a mixture of 20 mM MOPS (pH 7.0), 10 mM MgCl2, 0.1% BSA and 1 mM DTT. Final substrate concentrations in the assay are 100 μM ATP (Sigma Chemicals) and 10 μM peptide (Poly Glu:Tyr 4:1). Assays are carried out at 30° C. and in the presence of 40 nM Rlk. Final concentrations of the components of the coupled enzyme system are 2.5 mM phosphoenolpyruvate, 300 μM NADH, 30 μg/ml pyruvate kinase and 10 μg/ml lactate dehydrogenase.
An assay stock buffer solution is prepared containing all of the reagents listed above, with the exception of ATP and the test compound of interest. 60 μl of the stock solution is placed in a 96 well plate followed by addition of 2 μl of DMSO stock containing serial dilutions of the test compound (typically starting from a final concentration of 7.5 μM). The plate is preincubated for 10 minutes at 30° C. and the reaction initiated by addition of 5 μl of ATP. Initial reaction rates are determined with a Molecular Devices SpectraMax Plus plate reader over a 10 minute time course. IC50 and Ki data are calculated from non-linear regression analysis using the Prism software package (GraphPad Prism version 3.0cx for Macintosh, GraphPad Software, San Diego Calif., USA).

| Ki | SMILES |
| --- | --- |
| 500 to 5000 nM | NC1NN2C=C(c3cccc(CN4CCCNCC4)c3)C=NC2=C1c1ccccn1 (stereo not drawn) [Compound V-228] |
| 500 to 5000 nM | Nc1nn2cc(-c3ccc(CN4CCC(N)CC4)cc3)cnc2c1-c1ccccn1 [Compound V-234] |
| 500 to 5000 nM | Nc1nn2cc(-c3cccc(CN4CCNCC4)c3)cnc2c1-c1ccccn1 [Compound V-223] |
| 500 to 5000 nM | NC1CCN(Cc2cccc(C3=CN4NC(N)C(c5ccccn5)=C4N=C3)c2)CC1 (stereo not drawn) [Compound V-229] |
| 500 to 5000 nM | Nc1nn2cc(-c3cccc(N4CCNCC4)c3)cnc2c1-c1ccccn1 [Compound V-222] |
| 500 to 5000 nM | NC1NN2C=C(c3cccc(CN4CC[C@H](N)C4)c3)C=NC2=C1c1ccccn1 (stereo partly drawn) [Compound V-227] |
| < 500 nM | Nc1nn2cc(-c3ccc(CN4CCNCC4)cc3)cnc2c1-c1ccccn1 [Compound V-217] |
| 500 to 5000 nM | Nc1nn2cc(-c3ccc(CN4CC[C@H](N)C4)cc3)cnc2c1-c1ccccn1 [Compound V-233] |

Second part, the compound before the results:

| SMILES | Ki |
| --- | --- |
| NCc1cccc(-c2cnc3c(-c4ccccn4)c(N)nn3c2)c1 [Compound V-202] | 500 to 5000 nM |
| CN(C)Cc1cccc(-c2cnc3c(-c4ccccn4)c(N)nn3c2)c1 [Compound V-215] | 500 to 5000 nM |
| NCc1ccc(-c2cnc3c(-c4ccccn4)c(N)nn3c2)cc1 [Compound V-195] | 500 to 5000 nM |
| CNCCCN(C)Cc1ccc(-c2cnc3c(-c4ccccn4)c(N)nn3c2)cc1 [Compound V-230] | < 500 nM |
| CNCCCN(C)C(=O)c1ccc(-c2cnc3c(-c4ccccn4)c(N)nn3c2)cc1 [Compound V-191] | < 500 nM |
| CN(C)Cc1ccc(-c2cnc3c(-c4ccccn4)c(N)nn3c2)cc1 [Compound V-214] | 500 to 5000 nM |
| Nc1nn2cc(-c3ccc(CNC4CCNCC4)cc3)cnc2c1-c1ccccn1 [Compound V-232] | 500 to 5000 nM |
| CN(C)CCN(C)C(=O)c1ccc(-c2cnc3c(-c4ccccn4)c(N)nn3c2)cc1 [Compound V-188] | < 500 nM |
| CNCc1ccc(-c2cnc3c(-c4ccccn4)c(N)nn3c2)cc1 [Compound V-236] | 500 to 5000 nM |
| Nc1nn2cc(-c3ccc(CN4CC[C@@H](N)C4)cc3)cnc2c1-c1ccccn1 [Compound V-231] | 500 to 5000 nM |

target: Aurora-B (Homo sapiens, UniProt Q96GD4); experiment: Aurora B (Aurora-1) Inhibition Assay, 33P incorporation; assay type: biochemical; conditions: enzyme inhibition data (Ki), Table 11; read-out: AurB Ki
Experimental: An assay buffer solution is prepared which consists of 25 mM HEPES (pH 7.5), 10 mM MgCl2, 0.1% BSA and 10% glycerol. A 22 nM Aurora-B solution, also containing 1.7 mM DTT and 1.5 mM Kemptide (LRRASLG), is prepared in assay buffer. To 22 μL of the Aurora-B solution, in a 96-well plate, is added 2 μl of a compound stock solution in DMSO and the mixture is allowed to equilibrate for 10 minutes at 25° C. The enzyme reaction is initiated by the addition of 16 μl stock [γ-^33P]-ATP solution (˜20 nCi/μL) prepared in assay buffer, to a final assay concentration of 800 μM. The reaction is stopped after 3 hours by the addition of 16 μL 500 mM phosphoric acid and the levels of ^33P incorporation into the peptide substrate is determined by the following method.
A phosphocellulose 96-well plate (Millipore, Cat no. MAPHNOB50) is pre-treated with 100 μL of a 100 mM phosphoric acid prior to the addition of the enzyme reaction mixture (40 μL). The solution is left to soak on to the phosphocellulose membrane for 30 minutes and the plate subsequently is washed four times with 200 μL of a 100 mM phosphoric acid. To each well of the dry plate is added 30 μL of Optiphase ‘SuperMix’ liquid scintillation cocktail (Perkin Elmer) prior to scintillation counting (1450 Microbeta Liquid Scintillation Counter, Wallac). Levels of non-enzyme catalysed background radioactivity are determined by adding 16 μL of the 500 mM phosphoric acid to control wells, containing all assay components (which acts to denature the enzyme), prior to the addition of the [γ-^33P]-ATP solution. Levels of enzyme catalysed ^33P incorporation are calculated by subtracting mean background counts from those measured at each inhibitor concentration. For each Ki determination 8 data points, typically covering the concentration range 0-10 μM compound, are obtained in duplicate (DMSO stocks are prepared from an initial compound stock of 10 mM with subsequent 1:2.5 serial dilutions). Ki values are calculated from initial rate data by non-linear regression using the Prism software package (Prism 3.0, Graphpad Software, San Diego, Calif.).

Sequence of Aurora-B (Q96GD4 whole entry): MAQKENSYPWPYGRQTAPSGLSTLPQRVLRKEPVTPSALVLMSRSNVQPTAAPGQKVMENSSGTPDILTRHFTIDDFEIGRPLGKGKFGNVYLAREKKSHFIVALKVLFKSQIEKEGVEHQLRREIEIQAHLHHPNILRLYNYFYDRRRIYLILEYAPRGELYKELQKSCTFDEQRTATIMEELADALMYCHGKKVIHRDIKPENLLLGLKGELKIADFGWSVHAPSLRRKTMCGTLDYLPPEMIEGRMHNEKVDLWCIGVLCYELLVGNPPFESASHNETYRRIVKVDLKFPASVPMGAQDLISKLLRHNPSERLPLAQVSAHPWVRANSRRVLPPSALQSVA

| Ki | SMILES |
| --- | --- |
| 500 to 5000 nM | Nc1nn2cc(-c3ccncc3)cnc2c1-c1ncccc1OCc1ccccc1 [Compound V-134] |
| 500 to 5000 nM | Cc1ccnc(-c2c(N)nn3cc(-c4ccncc4)cnc23)c1 [Compound V-133] |
| 500 to 5000 nM | Cc1cccnc1-c1c(N)nn2cc(-c3ccncc3)cnc12 [Compound V-135] |
| 500 to 5000 nM | Cc1cccc(-c2c(N)nn3cc(-c4ccncc4)cnc23)n1 [Compound V-178] |
| < 500 nM | Nc1nn2cc(-c3ccncc3)cnc2c1-c1cc(N2CCCCC2)ncn1 [Compound V-179] |
| 500 to 5000 nM | Cc1ccc(-c2c(N)nn3cc(-c4ccncc4)cnc23)nc1 [Compound V-132] |
